The record followed here is patent publication US6423823B1, “Organic chemical compounds and method for producing the same” (Bayer Aktiengesellschaft, priority 1997, dated 2002).

Assay [1] has as its system Meloidogyne incognita. Put plainly: Nematicidal activity on phytopathogenic nematodes in 24-well tissue culture plates. The following applies: lethal dose for 90% of the nematode population, second larval stage, after 16 hours. Here is the method:
(§1) Test nematode: Meloidogyne incognita
Test method: The test substances are dissolved in methanol and pipetted into the wells of tissue culture plates (24-well tray). The solvent is evaporated, and 400 μl of nematode suspension are then added to each well of the tissue culture plate. The number of nematodes is 100 larvae of the second larval stage/400 μl . To promote the solubility of the samples in aqueous medium, the plate is shaken at 100 rpm for 15 minutes, and a first microscopic control is then carried out. After 16 hours, the percentage of dead larvae is determined and stated as LD90 (lethal dose for 90% of the nematode population).

Assay [2] has as its system Heterakis spumosa. Put plainly: In vivo mouse model, intestinal nematode. Conditions: dosage of 50 mg/kg. Here is the method:
In the in vivo mouse model, omphalotin B has full activity against the intestinal nematode Heterakis spumosa at a dosage of 50 mg/kg. The test is described in the above publication.

Assay [3] relates to Trichinella spiralis. Put plainly: In vitro test against Trichinella spiralis. Conditions: concentration of 1 μg/ml. As for the experimental part: The test was carried out according to the test description in the publication Plant et al. (1996) Pesticide Science 48: 351-358.
Assay [4] deals with Meloidogyne incognita. Put plainly: Effect on nematodes in the greenhouse (test crop: cucumbers). It counts as in vivo. The following applies: for Efficacy in %: cucumber plants, after 14 days, 100% = no galls formed; for Number of galls/plant: poured onto cucumber plants, evaluation after 14 days. Here is the method: as §1
Test method: In each case two cucumber plants (variety Bella F1) are grown in a soil-leaf mixture in pots of the dimensions 7×7×6 cm. The test substances are, in the appropriate concentrations, dissolved in methanol and then diluted in water and then poured onto the cucumber plants, which are about 14 days old. Per drip, 10 ml of solution are poured on. 3 hours after the treatment, about 500 nematodes are pipetted as a suspension onto each pot. The pots are incubated in a greenhouse at a day temperature of about 26° C. and a night temperature of 20° C. After 14 days, evaluation is carried out by washing out the roots and determining the galls formed per plant.
The efficacy of the test substance is 100% if no galls have been formed, and it is 0% if the same number of galls have been formed as in the control.

In assay [5] the test system is Spodoptera frugiperda. Briefly: Insecticidal maize leaf test. It counts as in vivo. Conditions: lethal dose for 50% of larvae, third larval stage, after 72 hours. As for the experimental part:
Test Insect: Spodoptera frugiperda
Test method: A rectangle (1.5×2 cm) cut from maize leaves (8-10 day-old plant, variety Golda) is placed in a Petri dish (diameter 5.5 cm, Greiner). The test substance, as a methanolic solution, is applied to the maize leaf and, after the solvent has evaporated, a filter disc (diameter 13 mm, Schleicher und Schüll) saturated with water and a larva of the third larval stage are added. The larva is placed next to the piece of leaf. The experiment is incubated at 24° C. After 48 hours, untreated maize (1.5×2 cm) is added. The feed behaviour and the state of the larvae are evaluated after 24, 48 and 72 hours. Per test concentration, 4 experiments and 3 repetitions are carried out. The insecticidal effect is stated as LD50 (lethal dose for 50% of larvae) after 72 hours.

For assay [6], the system named is Phaedon cochleariae. Put plainly: Insecticidal leaf disc test (savoy cabbage). The assay is classed as in vivo. The following applies: lethal dose for 100% of the larvae tested, third larval stage, after 96 hours. Here is the method:
Test insect: Phaedon cochleariae
(§2) Test method: Using a cork borer, 2 discs having a diameter of 10 mm are punched out of savoy cabbage leaves and placed in a Petri dish (diameter 5.5 cm, Greiner). The test substance is pipetted onto the leaf discs and, after the solvent has evaporated, a filter disc (diameter 13 mm, Schleicher und Schull) saturated in water and 2 freshly hatched larvae of the third larval stage are added. The larvae are placed next to the leaf discs. The experiment is incubated at 24° C. After 48 hours, an untreated savoy cabbage disc (10 mm Ø) is added. The feed behaviour and the state of the larvae are evaluated after 24, 48, 72 and 96 hours. Per test concentration, 2 experiments and 3 repetitions are carried out. The insecticidal effect is stated as LD100 (lethal dose for 100% of the larvae tested) after 96 hours.

The subject of assay [7] is Plutella xylostella. Briefly: Insecticidal leaf disc test (savoy cabbage). The assay is classed as in vivo. Conditions: lethal dose for 100% of the larvae tested, third larval stage, after 72 hours. As for the experimental part:
Test insect: Plutella xylostella
as §2, with “Schüll)” for “Schull)”, “48 and” for “48,”, “72” for “72 and 96”, “72” for “96”

Numbered stars: 1 amine (or outer) side, 2 acyl side, 3 side chain; on linkers, the order of the positions; unused ones are H or OH. Square brackets hold non-standard residues; d marks the D form. Peptide text beside a SMILES is read from it. ξ: configuration not given here. X1 = CC(OC(=O)CC(C)(C)O)C(C)C(C(=O)[*:2])N(C)[*:1]; X4 = CC(=O)OC(C)C(C)C(C(=O)[*:2])N(C)[*:1]; X3 = O=C(C1CC2(O)c3ccccc3NC2N1[*:1])[*:2]; ξNMeVal(3-OH) = CNC(C(=O)O)C(C)(C)O; NMeξGly(OAc) = CNC(OC(C)=O)C(=O)O; NMeI = CC[CH](C)[CH](NC)C(=O)O; X2 = CN(C(O)C(=O)[*:2])[*:1]; NMeV = CN[CH](C(=O)O)C(C)C; Sar = CNCC(=O)O

As to `CCC(C)C1NC(=O)C(C(C)C)N(C)C(=O)C2CC3(O)c4ccccc4NC3N2C(=O)CN(C)C(=O)C(C(C)CC)N(C)C(=O)C(C(C)C)NC(=O)C(O)N(C)C(=O)C(C(C)C(C)OC(=O)CC(C)(C)O)N(C)C(=O)C(C(C)(C)O)N(C)C(=O)CN(C)C(=O)C(C(C)C)N(C)C(=O)C(C(C)C)N(C)C1=O` (centres unmarked) [Omphalotin B] (cyclo([Sar][ξNMeVal(3-OH)][X1][X2]V[NMeI][Sar][X3][NMeV]I[NMeV][NMeV]); configuration not given here), the “Nematicidal activity against Meloidogyne incognita LD90” value (“Nematicidal activity” below) in assay [1] was determined as 2.5 µg/mL. Also, the “Activity against the intestinal nematode Heterakis spumosa” value in assay [2] is given as “full activity”. The “Effect against Trichinella spiralis in vitro” value in assay [3] was “full effect”. In assay [4] (2 ppm), this molecule came in with an Efficacy in % of 99% and a Number of galls/plant of 1. In assay [4] (5 ppm), this molecule gave an Efficacy in % of 100% and a Number of galls/plant of 0.

In the case of `CCC(C)C1NC(=O)C(C(C)C)N(C)C(=O)C2CC3(O)c4ccccc4NC3N2C(=O)CN(C)C(=O)C(C(C)CC)N(C)C(=O)C(C(C)C)NC(=O)C(OC(C)=O)N(C)C(=O)C(C(C)C(C)OC(=O)CC(C)(C)O)N(C)C(=O)C(C(C)(C)O)N(C)C(=O)CN(C)C(=O)C(C(C)C)N(C)C(=O)C(C(C)C)N(C)C1=O` (centres unmarked) [Omphalotin C] (cyclo([Sar][ξNMeVal(3-OH)][X1][NMeξGly(OAc)]V[NMeI][Sar][X3][NMeV]I[NMeV][NMeV]); configuration not given here), the “Nematicidal activity” value in assay [1] is 1 µg/mL. Moreover, the “Insecticidal activity against Spodoptera frugiperda LD50” value in assay [5] came to 100 μg/maize leaf. Besides, in assay [4] (2 ppm), the Efficacy in % is 99% and the Number of galls/plant is given as 1. In assay [4] (5 ppm), this molecule yielded an Efficacy in % of 100% and a Number of galls/plant of 0.

For the molecule `CCC(C)C1NC(=O)C(C(C)C)N(C)C(=O)C2CC3(O)c4ccccc4NC3N2C(=O)CN(C)C(=O)C(C(C)CC)N(C)C(=O)C(C(C)C)NC(=O)C(OC(C)=O)N(C)C(=O)C(C(C)C(C)OC(C)=O)N(C)C(=O)C(C(C)(C)O)N(C)C(=O)CN(C)C(=O)C(C(C)C)N(C)C(=O)C(C(C)C)N(C)C1=O` (centres unmarked) [Omphalotin D] (cyclo([Sar][ξNMeVal(3-OH)][X4][NMeξGly(OAc)]V[NMeI][Sar][X3][NMeV]I[NMeV][NMeV]); configuration not given here), the “Nematicidal activity” value in assay [1] is 4 µg/mL. In addition, in assay [6], the “Insecticidal activity against Phaedon cochleariae LD100” value was 100 μg/leaf disc. In addition, the “Insecticidal activity against Plutella xylostella LD100” value in assay [7] was 100 μg/leaf disc. The “Insecticidal activity against Spodoptera frugiperda LD50” value in assay [5] is recorded as 80 μg/maize leaf.
